# Data from patent publication US8697694B2, “Substituted pyridine and pyrimidine derivatives and their use in treating viral infections” (priority 2008, dated 2014).
# Tested on: HCV replicon cells
# Test: Cell-based HCV replicon assay (replicon RNA level by real time PCR, Taqman)
# Conditions: Hepatitis C virus, 72 h, HCV replicon cells, harvested day 3, replicon RNA by real time PCR; reported as range class; read-out: EC90 (μM) range
# Procedure, shortened: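 Readout: ΔCT between NS5B replicon RNA and GAPDH by real-time RT-PCR in lysates harvested on day 3, fitted sigmoidally; EC50 at ΔCT=1, EC90 at ΔCT=3.2. Compounds tested at ten 2-fold dilutions from 25 μM to 1 μM start, 10% FBS, 0.5% DMSO.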
row,SMILES,EC90 [µM]
1,CCCc1cc2cc(-c3c(Cl)nc(NC)nc3N[C@@H]3C[C@H](CO)[C@@H](O)[C@H]3O)oc2c(C)n1 [Example 312],< 0.5
2,Cc1nc(N(C)C)nc(N[C@@H]2C[C@H](CO)[C@@H](O)[C@H]2O)c1-c1nc2ccccc2s1 [Example 313],< 0.5
3,CCc1nc(N(C)C)nc(N[C@@H]2C[C@H](CO)[C@@H](O)[C@H]2O)c1-c1nc2ccccc2s1 [Example 314],> 5
4,CCN(C)c1nc(Cl)c(-c2nc3ccccc3s2)c(N[C@@H]2C[C@H](CO)[C@@H](O)[C@H]2O)n1 [Example 318],< 0.5
5,CNc1nc(C)c(-c2nc3ccccc3s2)c(N[C@@H]2C[C@H](CO)[C@@H](O)[C@H]2O)n1 [Example 319],< 0.5
6,CC(C)CNc1nc(Cl)c(-c2nc3ccccc3s2)c(N[C@@H]2C[C@H](CO)[C@@H](O)[C@H]2O)n1 [Example 320],< 0.5
7,Cc1cc2cc(-c3c(Cl)nc(N)nc3N[C@@H]3C[C@H](CO)[C@@H](O)[C@H]3O)oc2c(C)n1 [Example 401],< 0.5
8,Nc1nc(Cl)c(-c2cc3cncnc3o2)c(N[C@@H]2C[C@H](CO)[C@@H](O)[C@H]2O)n1 [Example 402],> 5
9,CNc1nc(Cl)c(-c2nc3ccccc3s2)c(N[C@@H]2C[C@H](CO)[C@@H](O)[C@H]2O)n1 [Example 403],< 0.5
10,CNc1nc(Cl)c(-c2nc3ccccc3s2)c(N(C)[C@@H]2C[C@H](CO)[C@@H](O)[C@H]2O)n1 [Example 404],> 5
11,CCc1cc2cc(-c3c(Cl)nc(N)nc3N[C@@H]3C[C@H](CO)[C@@H](O)[C@H]3O)oc2cn1 [Example 406],< 0.5
12,CCc1cc2cc(-c3c(Cl)nc(N)nc3N[C@@H]3C[C@H](CO)[C@@H](O)[C@H]3O)oc2c(CC)n1 [Example 407],< 0.5
13,CN(C)c1nc(Cl)c(-c2nc3ccccc3s2)c(N[C@@H]2C[C@H](CO)[C@@H](O)[C@H]2O)n1 [Example 408],< 0.5
14,CCCc1cc2cc(-c3c(Cl)nc(N)nc3N[C@@H]3C[C@H](CO)[C@@H](O)[C@H]3O)oc2cn1 [Example 410],< 0.5
15,CCN(CC)c1nc(Cl)c(-c2nc3ccccc3s2)c(N[C@@H]2C[C@H](CO)[C@@H](O)[C@H]2O)n1 [Example 411],0.5 to 5
16,CCNc1nc(Cl)c(-c2nc3ccccc3s2)c(N[C@@H]2C[C@H](CO)[C@@H](O)[C@H]2O)n1 [Example 412],< 0.5
17,OC[C@H]1C[C@@H](Nc2nc(N3CCC3)nc(Cl)c2-c2nc3ccccc3s2)[C@H](O)[C@@H]1O [Example 413],0.5 to 5
18,CN(C)c1nc(N[C@@H]2C[C@H](CO)[C@@H](O)[C@H]2O)c(-c2nc3ccccc3s2)c(-c2ccccc2)n1 [Example 414],> 5
19,CN(C)c1nc(N[C@@H]2C[C@H](CO)[C@@H](O)[C@H]2O)c(-c2nc3ccccc3s2)c(-c2cccs2)n1 [Example 415],> 5

# Same assay, conditions: Hepatitis C virus, 72 h, HCV replicon cells, harvested on day 3, replicon RNA by real time PCR; calculated EC90 reported as range class; read-out: EC90 (μM) range
row,SMILES,EC90 [µM]
1,OC[C@H]1C[C@@H](Nc2nc(NCC3CCCCC3)nc(Cl)c2-c2nc3ccccc3s2)[C@H](O)[C@@H]1O [Example 322],< 0.5
2,Cc1nc(NCC2CCCCC2)nc(N[C@@H]2C[C@H](CO)[C@@H](O)[C@H]2O)c1-c1nc2ccccc2s1 [Example 323],< 0.5
3,Cc1nc(S(C)(=O)=O)nc(N[C@@H]2C[C@H](CO)[C@@H](O)[C@H]2O)c1-c1nc2ccccc2s1 [Example 324],> 5
4,Cc1nc(NCC2CCCO2)nc(N[C@@H]2C[C@H](CO)[C@@H](O)[C@H]2O)c1-c1nc2ccccc2s1 (stereo partly shown) [Example 325],< 0.5
5,CSc1nc(C)c(-c2nc3ccccc3s2)c(N[C@@H]2C[C@H](CO)[C@@H](O)[C@H]2O)n1 [Example 326],0.5 to 5
6,CCCCCNc1nc(C)c(-c2nc3ccccc3s2)c(N[C@@H]2CC[C@@H](O)[C@H]2O)n1 [Example 327],< 0.5
7,Cc1nc(NCc2cccs2)nc(N[C@@H]2C[C@H](CO)[C@H]3OC(C)(C)O[C@H]32)c1-c1nc2ccccc2s1 [Example 328],< 0.5
8,Cc1nc(NCc2cccs2)nc(N[C@@H]2C[C@H](CO)[C@@H](O)[C@H]2O)c1-c1nc2ccccc2s1 [Example 329],< 0.5
9,Cc1nc(NCc2ccsc2)nc(N[C@@H]2C[C@H](CO)[C@@H](O)[C@H]2O)c1-c1nc2ccccc2s1 [Example 331],< 0.5
10,CCCCCNc1nc(C)c(-c2nc3ccccc3s2)c(N[C@@H]2CC[C@H]3OC4(CCCCC4)O[C@@H]23)n1 [Example 332],> 5
11,Cc1nc(NCc2cccs2)nc(N[C@@H]2CC[C@H]3OC4(CCCCC4)O[C@@H]23)c1-c1nc2ccccc2s1 [Example 334],> 5
12,Cc1nc(NCc2cccs2)nc(N[C@@H]2C[C@H](C)[C@H]3OC4(CCCCC4)O[C@H]32)c1-c1nc2ccccc2s1 [Example 335],> 5
13,Cc1nc(NCc2cccs2)nc(N[C@@H]2CC[C@@H](O)[C@H]2O)c1-c1nc2ccccc2s1 [Example 336],< 0.5
14,Cc1nc(NCc2cccs2)nc(N[C@@H]2C[C@H](C)[C@@H](O)[C@H]2O)c1-c1nc2ccccc2s1 [Example 337],< 0.5
15,COCc1cc2cc(-c3c(C)nc(NCc4nccs4)nc3N[C@@H]3C[C@H](CO)[C@H]4OC(C)(C)O[C@H]43)oc2cn1 [Example 339],< 0.5
16,COCc1cc2cc(-c3c(C)nc(NCc4nccs4)nc3N[C@@H]3C[C@H](CO)[C@@H](O)[C@H]3O)oc2cn1 [Example 340],< 0.5
17,CCc1cc2cc(-c3c(C)nc(NCc4nccs4)nc3N[C@@H]3C[C@H](CO)[C@H]4OC(C)(C)O[C@H]43)oc2cn1 [Example 341],< 0.5
18,CCc1cc2cc(-c3c(C)nc(NCc4nccs4)nc3N[C@@H]3C[C@H](CO)[C@@H](O)[C@H]3O)oc2cn1 [Example 342],< 0.5
19,CCc1cc2cc(-c3c(C)nc(NCc4ccccn4)nc3N[C@@H]3C[C@H](CO)[C@H]4OC(C)(C)O[C@H]43)oc2cn1 [Example 343],> 5
20,CCc1cc2cc(-c3c(C)nc(NCc4ccccn4)nc3N[C@@H]3C[C@H](CO)[C@@H](O)[C@H]3O)oc2cn1 [Example 344],< 0.5
21,CCc1cc2cc(-c3c(C)nc(NCc4cc(OC)cc(OC)c4)nc3N[C@@H]3C[C@H](CO)[C@H]4OC(C)(C)O[C@H]43)oc2cn1 [Example 345],< 0.5
22,CCc1cc2cc(-c3c(C)nc(NCc4cc(OC)cc(OC)c4)nc3N[C@@H]3C[C@H](CO)[C@@H](O)[C@H]3O)oc2cn1 [Example 346],< 0.5
23,COc1cc(CNc2nc(C)c(-c3cc4cc(OC)nc(C)c4o3)c(N[C@@H]3C[C@H](CO)[C@H]4OC(C)(C)O[C@H]43)n2)cc(OC)c1 [Example 347],< 0.5

row,SMILES,EC90 [µM]
1,COc1cc(CNc2nc(C)c(-c3cc4cc(OC)nc(C)c4o3)c(N[C@@H]3C[C@H](CO)[C@@H](O)[C@H]3O)n2)cc(OC)c1 [Example 348],< 0.5
2,COc1cc2cc(-c3c(C)nc(NCc4ccccn4)nc3N[C@@H]3C[C@H](CO)[C@H]4OC(C)(C)O[C@H]43)oc2c(C)n1 [Example 349],0.5 to 5
3,CN(C)c1nc(N[C@@H]2C[C@H](CO)[C@@H](O)[C@H]2O)c(-c2nc3ccccc3s2)c(C2CC2)n1 [Example 416],0.5 to 5
4,CCCNc1nc(Cl)c(-c2nc3ccccc3s2)c(N[C@@H]2C[C@H](CO)[C@@H](O)[C@H]2O)n1 [Example 419],< 0.5
5,Cc1cc2cc(-c3c(Cl)nc(N(C)C)nc3N[C@@H]3C[C@H](CO)[C@@H](O)[C@H]3O)oc2c(C)n1 [Example 420],> 5
6,CCCNc1nc(C)c(-c2nc3ccccc3s2)c(N[C@@H]2C[C@H](CO)[C@@H](O)[C@H]2O)n1 [Example 422],< 0.5
7,OC[C@H]1C[C@@H](Nc2nc(NC3CCOCC3)nc(Cl)c2-c2nc3ccccc3s2)[C@H](O)[C@@H]1O [Example 424],< 0.5
8,Cc1nc(NC2CCOCC2)nc(N[C@@H]2C[C@H](CO)[C@@H](O)[C@H]2O)c1-c1nc2ccccc2s1 [Example 425],< 0.5
9,CC(C)Nc1nc(Cl)c(-c2nc3ccccc3s2)c(N[C@@H]2C[C@H](CO)[C@@H](O)[C@H]2O)n1 [Example 426],< 0.5
10,Cc1nc(NC(C)C)nc(N[C@@H]2C[C@H](CO)[C@@H](O)[C@H]2O)c1-c1nc2ccccc2s1 [Example 427],< 0.5
11,CC(C)(C)Nc1nc(Cl)c(-c2nc3ccccc3s2)c(N[C@@H]2C[C@H](CO)[C@@H](O)[C@H]2O)n1 [Example 428],< 0.5
12,Cc1nc(NC(C)(C)C)nc(N[C@@H]2C[C@H](CO)[C@@H](O)[C@H]2O)c1-c1nc2ccccc2s1 [Example 429],< 0.5
13,OC[C@H]1C[C@@H](Nc2nc(NCc3ccccc3)nc(Cl)c2-c2nc3ccccc3s2)[C@H](O)[C@@H]1O [Example 430],< 0.5
14,Cc1nc(NCc2ccccc2)nc(N[C@@H]2C[C@H](CO)[C@@H](O)[C@H]2O)c1-c1nc2ccccc2s1 [Example 431],< 0.5
15,CCCCNc1nc(Cl)c(-c2nc3ccccc3s2)c(N[C@@H]2C[C@H](CO)[C@@H](O)[C@H]2O)n1 [Example 432],< 0.5
16,CCCCCNc1nc(Cl)c(-c2nc3ccccc3s2)c(N[C@@H]2C[C@H](CO)[C@@H](O)[C@H]2O)n1 [Example 433],< 0.5
17,CCCCNc1nc(C)c(-c2nc3ccccc3s2)c(N[C@@H]2C[C@H](CO)[C@@H](O)[C@H]2O)n1 [Example 434],< 0.5
18,CCCCCNc1nc(C)c(-c2nc3ccccc3s2)c(N[C@@H]2C[C@H](CO)[C@@H](O)[C@H]2O)n1 [Example 435],< 0.5
19,CC(C)(C)CNc1nc(Cl)c(-c2nc3ccccc3s2)c(N[C@@H]2C[C@H](CO)[C@@H](O)[C@H]2O)n1 [Example 436],< 0.5
20,Cc1nc(NCC(C)(C)C)nc(N[C@@H]2C[C@H](CO)[C@@H](O)[C@H]2O)c1-c1nc2ccccc2s1 [Example 437],< 0.5
21,COC[C@H](C)Nc1nc(Cl)c(-c2nc3ccccc3s2)c(N[C@@H]2C[C@H](CO)[C@@H](O)[C@H]2O)n1 [Example 438],< 0.5
22,COC[C@H](C)Nc1nc(C)c(-c2nc3ccccc3s2)c(N[C@@H]2C[C@H](CO)[C@@H](O)[C@H]2O)n1 [Example 439],< 0.5
